From PMC5238430, “Prebiotic galactooligosaccharides activate mucin and pectic galactan utilization pathways in the human gut symbiont Bacteroides thetaiotaomicron” (Scientific Reports, 2017)

Target: T1, BtGH53 (BT_4668), GH53 endo-beta-(1->4)-galactanase (Bacteroides thetaiotaomicron, UniProt Q89YR3)
T1 sequence (Q89YR3 23-353): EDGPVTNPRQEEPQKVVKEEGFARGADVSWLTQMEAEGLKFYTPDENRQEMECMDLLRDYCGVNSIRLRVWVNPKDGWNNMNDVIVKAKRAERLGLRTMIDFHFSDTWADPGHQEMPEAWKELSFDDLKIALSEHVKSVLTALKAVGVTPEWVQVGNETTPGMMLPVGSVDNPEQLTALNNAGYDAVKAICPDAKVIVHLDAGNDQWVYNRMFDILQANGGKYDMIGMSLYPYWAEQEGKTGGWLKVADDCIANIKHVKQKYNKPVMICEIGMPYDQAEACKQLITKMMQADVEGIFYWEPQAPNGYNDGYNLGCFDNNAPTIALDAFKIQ
Assay: TLC and HPAEC-PAD of hydrolysis products
Format: biochemical
Conditions: component of purified GOS mixture (TS0903), not tested singly; 20 mM Tris pH 7.5, 150 mM NaCl, 37 °C, 16 h

OC[C@H]1O[C@@H](O[C@@H]2[C@H](O)[C@@H](O)[C@H](O[C@H]3[C@H](O)[C@@H](O)C(O)O[C@@H]3CO)O[C@@H]2CO)[C@H](O)[C@@H](O)[C@H]1O (stereo partly drawn) [compound 9, β-D-Galp-(1 → 4)-β-D-Galp-(1 → 4)-β-D-Glc]
TLC and HPAEC-PAD of hydrolysis products: BtGH53 hydrolyzes linear DP3 and higher GOS compounds
